Like-named read-outs stand apart in the source and are kept apart here.
Columns and labels:
[1] = test system: lignification in the Casparian strip; details: five day old seedlings grown in vitro, continuous exposure to 10 μM; Van de Wouwer et al., 2016; cited from earlier work
[2] = test system: C4H gene; assay: C4H gene expression in root system of rice plants after foliar treatment; type: in vivo, Oryza sativa cv. Bomba; details: fourteen-day old rice plants, foliar treatment 24 and 3 hours prior to harvest, 100 μM
Text: Techniques for measuring and determining the (effect on) activity of C4H are well known to the one of ordinary skill in the art. Useful methods to determine inhibition of C4H activity are (incorporated by reference): • Measurement of the conversion efficiency of trans-cinnamic acid labeled with ^13C or ^14C in the presence of a potential C4H inhibitor in plant cell cultures or in yeast microsomes in which the CYP73A1 is expressed (as described in Schoch et al. 2002; Van de Wouwer et al. 2016; Schalk et al. 1998). Representative inhibition kinetics values obtained in cell suspensions for both competitive and irreversible C4H inhibitors can be found in Table 1 in Schoch et al., 2002 (incorporated by reference). • Inhibition of the C4H enzyme increases the concentration of free trans-cinnamic acid, which is rapidly conjugated in planta. The accumulation of trans-cinnamic acid amino acid conjugates, which can be quantified using HPLC-MS, can be used as a proxy measure for C4H inhibition in planta. This approach is outlined in Steenackers et al. 2016. […] Representative values for the increase in the quantity of trans-cinnamic acid conjugates are found in Supplemental Figure S2 in Steenackers et al. 2016 (incorporated by reference). • Inhibition of the C4H enzyme causes a compensatory upregulation of the C4H gene, as shown in Example 20. […]

[3] = test system: Arabidopsis thaliana seedlings; details: continuous exposure of seedlings; Steenackers et al. 2016; read-out: IC50-root (dose required to reduce primary root elongation by 50%); cited from earlier work
[4] = test system: Tetranychus urticae; assay: Acute (direct) toxicity to spider mites sprayed on leaf discs; type: in vivo; details: 300 μM spray, after 24 h
Procedure: Tetranychus urticae—Spider mites of a laboratory reference strain were collected and placed on arenas consisting of a square bean leaf disc, placed on wet cotton wool and lined with paper tissue. Each arena received 25 to 30 adult female mites. The arenas were then sprayed in a custom-build spray tower with either 300 μM PA or control solution, six replicates each. The mites were incubated at 25° C., 18:6 L:D. Mortality was scored after 24 h. Mites were scored as either drowned (in water barrier), alive or dead (not moving its own body length within 10 seconds after prodding with a tiny brush).
T. urticae—Direct toxicity of PA to spider mites was evaluated by spraying mites on leaf disks with either 300 μM PA or control solution.

[5] = test system: Tetranychus urticae; assay: Two-spotted spider mite reproduction on tomato after foliar spray; type: in vivo; details: 300 μM foliar spray, ten days after inoculation with ten females
Procedure: Tomato (cv. Moneymaker) seeds were obtained from Vreeken's Zaden (Dordrecht, the Netherlands). Seeds were germinated on potting soil at 22° C.; seedlings were then transferred to individual pots filled with potting soil and placed in a growth chamber at 24° C. with 16 hours per day of fluorescent light.
(§1) A 100 mM piperonylic acid stock was prepared by dissolving piperonylic acid (Sigma-Aldrich, Saint-Louis, USA) in DMSO (Duchefa Biochemie, Haarlem, the Netherlands). Before use, this stock solution was diluted with distilled water to a concentration of 300 μM and mixed with 0.1 v/v % Tween 20. Working solutions of 1000 μM PA (Aculops experiment) were prepared in a similar manner from a 300 mM stock solution. The resulting spraying solution was applied to plants until run-off using an atomizer. […]
Tomato plants in the early four-leaf stage were inoculated with T. urticae by placing ten adult females on the second leaf of each plant. […] All moving mites present on the leaf were counted (regardless of life stage).
Images of tomato leaves damaged by S. exigua were analyzed using the ImageJ software. For T. urticae damage, the total area of the second leaf of each plant was quantified using the polygon selection tool. Then, the total area of chlorotic patches on the leaf was measured in the same manner and the ratio of both values was calculated to obtain the percentage of chlorotic leaf.

[6] = test system: Steneotarsonemus spinki; assay: Greenhouse experiment: rice yield and fertility under panicle rice mite stress; type: in vivo
Procedure: Rice seeds (cv. Kitaake) were sterilized and germinated on wet paper in the dark at 30° C. Seedlings were transferred to sterilized potting soil and placed in a climate-controlled compartment at the Ghent University greenhouse complex (Melle, Belgium). The compartment was known to host a natural mite infestation; the causal mite had previously been identified as Steneotarsonemus spinki by professor Thomas van Leeuwen of the agrozoology lab at Ghent University. Pots were arranged in a completely randomized manner in the same tray.
To determine the effects of C4H inhibition on yield and fertility in the presence of mites, rice (Oryza sativa cv. Kitaake) was grown in a greenhouse until maturity and treated with a control or 300 μM PA foliar spray at bi-weekly intervals. This greenhouse is naturally infested with the panicle rice mite (Steneotarsonemus spinki).

[7] = test system: Bemisia tabaci; assay: Tobacco whitefly egg development on cotton after foliar spray; type: in vivo; details: 300 μM foliar spray
Procedure: Cotton seeds were germinated in individual pots filled with potting soil and placed in a greenhouse with supplemental lighting (16 hours of light per day).
(§2) A 100 mM piperonylic acid stock was prepared by dissolving piperonylic acid (Sigma-Aldrich, Saint-Louis, USA) in DMSO (Duchefa Biochemie, Haarlem, the Netherlands). Before use, this stock solution was diluted with distilled water to a concentration of 300 μM and mixed with 0.1 v/v % Tween 20. Working solutions of 1000 μM PA (Aculops experiment) were prepared in a similar manner from a 300 mM stock solution. The resulting spraying solution was applied to plants until run-off using an atomizer. As a control, a solution consisting of an equivalent amount of DMSO and Tween 20 was used in the same manner. Plants were sprayed twice, one and eight days before inoculation. The tomato plants used in the spider mite experiment were sprayed a final time five days after inoculation, but only on the non-inoculated leaves to avoid direct effects of the spray on the mites.
B. tabaci (biotype Q) was reared on cotton plants under controlled laboratory conditions. Approximately sixty mixed-sex adults were collected and placed in ventilated vials attached to the leaves of two-week old cotton plants. After being allowed to oviposit for 24 hours, the adults were removed. Eight days after oviposition, leaves were detached and the number of unhatched eggs, crawlers and nymphs per plant was recorded.

[8] = test system: Spodoptera exigua; assay: Acute (direct) toxicity to Spodoptera exigua L3 larvae; type: in vivo; details: 300 μM, out of 30 larvae (control 29)
Procedure: Spodoptera exigua—S. exigua was reared on an artificial diet in a 24° C. incubator. Recently molted L3 larvae were placed in petri dishes containing tissue paper and 2 g of artificial feed pellets. Both tissue paper and pellets were wetted with 10 ml of either distilled water or distilled water containing 300 μM PA. Twenty-four and seventy-two hours later, the number of surviving caterpillars was counted. A caterpillar was considered alive if it was either actively moving, or if it moved when gently prodded. It was also recorded whether a caterpillar was feeding (present on a feed pellet) to measure whether PA-treated feed pellets were repellent to the caterpillar.
S. exigua—Direct toxicity of piperonylic acid (PA) was determined using the protocol outlined in the materials and methods section. Briefly, 30 recently molted L3 larvae were placed per petri dish containing tissue paper and food pellets that had been wetted with either a 300 μM piperonylic acid solution or a water control.

[9] = test system: Frankliniella occidentalis; assay: Western flower thrips progeny on pepper plants; type: in vivo; details: 300 μM, progeny counted three days after four-day infestation with ten adults (control 19.0±1.84)
Procedure: Pepper seedlings (cv. Cayenne long slim) were transferred to individual pots with potting soil two weeks after sowing. Plants were maintained in a growth room (25° C., 16:8 L:D) for two additional weeks. Plants were removed from the soil and placed with their roots in water (to accommodate the Plexiglas cage system) at the onset of thrips infestation (4 weeks old).
as §2, with “The tomato plants used in the spider mite experiment were sprayed a final time five days after inoculation, but only on the non-inoculated leaves to avoid direct effects of the spray on the mites.” left out
F. occidentalis was reared on bean pods in an incubator at 28° C.; 70% RH and 16:8 L:D. For inoculation of the PA-treated (300 μM) or Control plants, 10 females (two days old since turning adult) were transferred with a fine brush to a pepper plant inside a Plexiglas cage. After four days, all females were removed, while their progeny was counted three days later.

[10] = test system: Aculops lycopersici; assay: Tomato russet mite population growth on tomato; type: in vivo; details: ten days after inoculation with 30 mites
Procedure: as §2
A. lycopersici was reared on tomato plants in an incubator at 27° C.; 50% RH and 16:8 L:D. For inoculation of the PA-treated (300 μM or 1000 μM) or Control plants, 30 mites were transferred with a fine brush to a small leaf disk (1 cm), which was then placed on top of the plants. The mites were allowed the reproduce on the tomato plants during ten days, after which the total number of mites was compared.

[11] = test system: Aculops lycopersici; assay: Acute (direct) toxicity to russet mites sprayed on leaf disks; type: in vivo; details: 300 μM spray, after 24 h
Procedure: Aculops lycopersici—Tomato russet mites were collected from a lab culture and transferred to a tomato leaf disk placed on agar. Each disk received 25 to 30 adult mites. The disks with mites were then sprayed in a custom-build spray tower with either 300 μM PA or control solution, six replicates each. The russet mites were incubated at 25° C., 18:6 L:D. Mortality was scored after 24 h. Mites were scored as either lost (in agar barrier), alive or dead.
A. lycopersici—Direct toxicity of PA to russet mites was evaluated by spraying mites on leaf disks with either 300 μM PA or control solution.

[12] = test system: Rhopalosiphum padi; assay: Bird cherry-oat aphid reproduction on wheat, second experiment (synchronized aphids); type: in vivo; details: 300 μM foliar spray, ten days
Procedure: (§3) Winter wheat (cv. Sahara) seeds were obtained from Aveve Agrarisch (Landen, Belgium). Seeds were washed with a 10% ethanol solution to remove residual fungicide traces and then germinated on wet paper at room temperature. Seedlings were transferred to potting soil and placed in a growth chamber at 22° C. with 16 hours per day of fluorescent light.
as §1, with “atomizer. As a control, a solution consisting of an equivalent amount of DMSO and Tween 20 was used in the same manner.” for “atomizer.”
(§4) In the second experiment, R. padi aphids were reared on barley plants grown at room temperature. […] Twenty-four hours later, the number of remaining adults on each pot was recorded. Ten days later, the number of aphids in each pot was counted. The reproductive factor was calculated by dividing the number of aphids counted after ten days by the number of remaining adult females twenty-four hours after inoculation.

[13] = test system: Rhopalosiphum padi; assay: Bird cherry-oat aphid reproduction on wheat, first experiment; type: in vivo; details: 300 μM foliar spray, ten days
Procedure: as §3
as §1, with “atomizer. As a control, a solution consisting of an equivalent amount of DMSO and Tween 20 was used in the same manner.” for “atomizer.”
as §4, with “first” for “second”

[14] = test system: Arabidopsis thaliana seedlings; assay: Primary root elongation of Arabidopsis thaliana seedlings (IC50-root); type: in vivo; details: continuous exposure of seedlings, unpublished data, read-out: IC50-root (dose required to reduce primary root elongation by 50%)
[15] = rice, 300 μM foliar spray bi-weekly, three months after emergence

In the case of `O=C(O)C=Cc1ccc2c(c1)OCO2` [MDCA, 3,4-methylenedioxycinnamic acid], the “increase of the number of non-lignified endodermal cells in the Casparian strip region” value [1] is listed as 104%, the “increase of C4H expression in the root system” value [2] is listed as “three-fold” and the IC50 [3] is listed as 5.07 µM.
In the case of `O=C(O)c1ccc2c(c1)OCO2` [PA, Piperonylic acid], the “spider mite mortality vs control” value [4] is reported as “No significant difference”, the “change in number of mites present on the leaf vs control” value [5] is reported as −49% and the “change in percentage of visibly chlorotic leaf area vs control” value [5] is reported as −62%. The “change in number of seeds vs control” value ([6]; rice cv. Kitaake, 300 μM foliar spray at bi-weekly intervals, three months after emergence) was “+104%”, the “empty panicles vs control” value [6, 15] was “fewer empty panicles” and the “tillers developed vs control” value [6, 15] was “more tillers”. For the same compound, the “change in seed germination rate vs control” value ([6]; seeds from treated plants, seven days on wet paper) was “+45%”, the “increase of the number of non-lignified endodermal cells in the Casparian strip region” value [1] was 134% and the “number of eggs deposited on cotton plants” value ([7]; 24 hours oviposition) was “did not affect”. The “eggs failed to hatch” value ([7]; eight days after oviposition (control 3%)) was 20%, the “eggs developed into nymphs” value ([7]; eight days after oviposition (control 16%)) was 9% and the L3 larvae alive ([8]; after seventy-two hours) was 27. The L3 larvae alive ([8]; after twenty-four hours) was 28, the “number of thrips larvae recovered (mean±SE)” value [9] was 11.33±1.82 larvae and the “reduction of russet mite population growth vs control” value ([10]; 300 μM, not significant (p=0.052)) was “about 50%”. The “reduction of russet mite population growth vs control” value ([10]; 1000 μM, not significant (p=0.089)) was “about 50%”, the “russet mite mortality vs control” value [11] was “No significant difference” and the “change in reproductive factor of R. padi vs control” value [12] was 29%. The “change in reproductive factor of R. padi vs control” value [13] was −32%, the “increase of C4H expression in the root system” value [2] was “ten-fold” and the IC50 [14] was 40 µM.
In the case of `O=C(O)c1ccc(I)cc1` [4-IBA, 4-iodobenzoic acid], the “increase of the number of non-lignified endodermal cells in the Casparian strip region” value [1] is given as 57%.
